The subject of one data set is FaDu. As to the kind of experiment: Antiproliferative activity against human FaDu cells assessed as inhibition of cell growth at 10 uM measured after 48 to 72 hrs by MTT assay relative to control. It counts as functional. Particulars: time 48-72 hrs; call rule not given here.
A further data set concerns MCF7. As to the kind of experiment: Antiproliferative activity against human MCF7 cells assessed as inhibition of cell growth at 10 uM measured after 48 to 72 hrs by MTT assay relative to control. It is filed as functional. Conditions: time 48-72 hrs.
In a further data set the test system is A549. As to the kind of experiment: Antiproliferative activity against human A549 cells assessed as inhibition of cell growth at 10 uM measured after 48 to 72 hrs by MTT assay relative to control. Conditions: time 48-72 hrs. It counts as functional.
Another data set deals with MDA-MB-231. Put plainly: Antiproliferative activity against human MDA-MB-231 cells assessed as inhibition of cell growth at 10 uM measured after 48 to 72 hrs by MTT assay relative to control. It counts as functional. Particulars: time 48-72 hrs.
Data set [1] can be described thus: Antiproliferative activity against human HCC cells assessed as inhibition of cell growth at 10 uM measured after 48 to 72 hrs by MTT assay relative to control. It is filed as functional. Conditions: time 48-72 hrs.
For another data set, the system named is T47D. Put plainly: Antiproliferative activity against human T47D cells assessed as inhibition of cell growth at 10 uM measured after 48 to 72 hrs by MTT assay relative to control. It counts as functional. Conditions: time 48-72 hrs.
The next data set has as its system HEK293. As to the kind of experiment: Antiproliferative activity against HEK293 cells assessed as inhibition of cell growth at 10 to 25 uM measured after 48 to 72 hrs by MTT assay. It is filed as toxicity, cell-based. Particulars: human, hek293, 25 µM; dose lower 10 µM, time lower 48 hrs, dose upper 25 µM, time upper 72 hrs.
In data set [2] the target is T1, DNA topoisomerase 1 (Homo sapiens) (UniProt P11387).
T1 sequence (whole entry): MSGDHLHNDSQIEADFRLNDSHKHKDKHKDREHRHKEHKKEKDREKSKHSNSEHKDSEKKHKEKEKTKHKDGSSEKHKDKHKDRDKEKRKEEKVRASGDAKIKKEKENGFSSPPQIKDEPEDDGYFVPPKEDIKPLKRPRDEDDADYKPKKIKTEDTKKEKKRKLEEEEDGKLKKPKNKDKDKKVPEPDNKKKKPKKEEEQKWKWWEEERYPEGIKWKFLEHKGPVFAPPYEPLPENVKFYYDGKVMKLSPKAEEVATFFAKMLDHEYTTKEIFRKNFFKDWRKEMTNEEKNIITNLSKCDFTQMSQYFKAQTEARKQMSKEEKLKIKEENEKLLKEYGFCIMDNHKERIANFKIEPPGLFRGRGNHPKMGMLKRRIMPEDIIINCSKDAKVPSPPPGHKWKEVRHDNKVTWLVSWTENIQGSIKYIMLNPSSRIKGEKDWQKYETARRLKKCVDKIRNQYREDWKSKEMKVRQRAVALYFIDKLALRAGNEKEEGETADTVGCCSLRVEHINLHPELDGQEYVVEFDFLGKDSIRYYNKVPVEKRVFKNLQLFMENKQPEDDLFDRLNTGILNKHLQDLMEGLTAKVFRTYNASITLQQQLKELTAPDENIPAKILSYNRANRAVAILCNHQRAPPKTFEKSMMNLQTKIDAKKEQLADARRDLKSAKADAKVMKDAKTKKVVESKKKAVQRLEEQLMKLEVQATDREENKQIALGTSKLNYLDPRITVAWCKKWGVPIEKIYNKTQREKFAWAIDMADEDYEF
Put plainly: Inhibition of human topoisomerase-I extracted from baculovirus expression system using SC-DNA as substrate incubated for 30 mins by EtBr staining based agarose gel electrophoresis method.

The target in data set [3] is T1, DNA topoisomerase 1 (Homo sapiens). Put plainly: Inhibition of human topoisomerase-I extracted from baculovirus expression system assessed as relaxation of supercoiled DNA using SC-DNA as substrate incubated for 30 mins by EtBr staining based agarose gel electrophoresis method.
Data set [4] concerns the target DNA topoisomerase 2-alpha (Homo sapiens) (UniProt P11388). As to the kind of experiment: Inhibition of human topoisomerase-II alpha assessed as reduction in decatenation activity using kinetoplast DNA as substrate incubated for 30 mins by EtBr staining based agarose gel electrophoresis method.
For data set [5], the target named is T2, Prostaglandin G/H synthase 1 (Ovis aries) (UniProt P05979).
T2 sequence (whole entry): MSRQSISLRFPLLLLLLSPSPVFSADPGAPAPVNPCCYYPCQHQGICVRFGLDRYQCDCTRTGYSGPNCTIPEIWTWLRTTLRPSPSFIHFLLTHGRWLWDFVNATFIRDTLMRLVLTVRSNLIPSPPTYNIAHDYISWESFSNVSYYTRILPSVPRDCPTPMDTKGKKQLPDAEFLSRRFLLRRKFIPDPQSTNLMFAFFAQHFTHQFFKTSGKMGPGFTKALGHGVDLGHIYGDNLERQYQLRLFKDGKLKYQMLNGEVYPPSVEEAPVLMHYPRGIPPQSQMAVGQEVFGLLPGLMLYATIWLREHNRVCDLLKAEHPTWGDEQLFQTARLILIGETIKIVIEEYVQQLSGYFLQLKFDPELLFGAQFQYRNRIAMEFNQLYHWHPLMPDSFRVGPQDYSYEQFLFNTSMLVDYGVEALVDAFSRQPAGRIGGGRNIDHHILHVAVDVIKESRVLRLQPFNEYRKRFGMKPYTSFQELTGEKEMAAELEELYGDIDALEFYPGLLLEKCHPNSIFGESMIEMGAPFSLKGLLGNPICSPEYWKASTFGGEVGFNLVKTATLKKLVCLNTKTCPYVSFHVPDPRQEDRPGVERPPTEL
Put plainly: Inhibition of ovine COX-1 at 10 uM relative to control.

For data set [6], the target named is T3, Prostaglandin G/H synthase 2 (Homo sapiens) (UniProt P35354).
T3 sequence (whole entry): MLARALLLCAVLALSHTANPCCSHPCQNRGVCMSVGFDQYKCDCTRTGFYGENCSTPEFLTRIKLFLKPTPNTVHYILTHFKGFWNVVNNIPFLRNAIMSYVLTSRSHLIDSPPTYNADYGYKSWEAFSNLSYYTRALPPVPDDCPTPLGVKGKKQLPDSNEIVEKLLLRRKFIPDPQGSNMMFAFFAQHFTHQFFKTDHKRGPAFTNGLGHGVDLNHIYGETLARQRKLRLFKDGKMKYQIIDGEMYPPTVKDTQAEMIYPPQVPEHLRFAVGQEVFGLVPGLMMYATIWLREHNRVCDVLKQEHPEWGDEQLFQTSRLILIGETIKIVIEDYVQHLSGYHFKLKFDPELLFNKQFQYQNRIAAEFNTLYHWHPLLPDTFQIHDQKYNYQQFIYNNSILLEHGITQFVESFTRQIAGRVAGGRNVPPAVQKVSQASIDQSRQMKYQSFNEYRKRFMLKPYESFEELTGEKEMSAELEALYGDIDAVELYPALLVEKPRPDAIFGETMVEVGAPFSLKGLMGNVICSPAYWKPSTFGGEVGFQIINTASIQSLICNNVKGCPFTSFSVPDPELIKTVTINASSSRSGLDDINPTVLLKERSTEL
Put plainly: Inhibition of human recombinant COX-2 at 10 uM relative to control.

The structures appear in SMILES notation.

Sequence of DNA topoisomerase 2-alpha (Homo sapiens) (P11388 whole entry): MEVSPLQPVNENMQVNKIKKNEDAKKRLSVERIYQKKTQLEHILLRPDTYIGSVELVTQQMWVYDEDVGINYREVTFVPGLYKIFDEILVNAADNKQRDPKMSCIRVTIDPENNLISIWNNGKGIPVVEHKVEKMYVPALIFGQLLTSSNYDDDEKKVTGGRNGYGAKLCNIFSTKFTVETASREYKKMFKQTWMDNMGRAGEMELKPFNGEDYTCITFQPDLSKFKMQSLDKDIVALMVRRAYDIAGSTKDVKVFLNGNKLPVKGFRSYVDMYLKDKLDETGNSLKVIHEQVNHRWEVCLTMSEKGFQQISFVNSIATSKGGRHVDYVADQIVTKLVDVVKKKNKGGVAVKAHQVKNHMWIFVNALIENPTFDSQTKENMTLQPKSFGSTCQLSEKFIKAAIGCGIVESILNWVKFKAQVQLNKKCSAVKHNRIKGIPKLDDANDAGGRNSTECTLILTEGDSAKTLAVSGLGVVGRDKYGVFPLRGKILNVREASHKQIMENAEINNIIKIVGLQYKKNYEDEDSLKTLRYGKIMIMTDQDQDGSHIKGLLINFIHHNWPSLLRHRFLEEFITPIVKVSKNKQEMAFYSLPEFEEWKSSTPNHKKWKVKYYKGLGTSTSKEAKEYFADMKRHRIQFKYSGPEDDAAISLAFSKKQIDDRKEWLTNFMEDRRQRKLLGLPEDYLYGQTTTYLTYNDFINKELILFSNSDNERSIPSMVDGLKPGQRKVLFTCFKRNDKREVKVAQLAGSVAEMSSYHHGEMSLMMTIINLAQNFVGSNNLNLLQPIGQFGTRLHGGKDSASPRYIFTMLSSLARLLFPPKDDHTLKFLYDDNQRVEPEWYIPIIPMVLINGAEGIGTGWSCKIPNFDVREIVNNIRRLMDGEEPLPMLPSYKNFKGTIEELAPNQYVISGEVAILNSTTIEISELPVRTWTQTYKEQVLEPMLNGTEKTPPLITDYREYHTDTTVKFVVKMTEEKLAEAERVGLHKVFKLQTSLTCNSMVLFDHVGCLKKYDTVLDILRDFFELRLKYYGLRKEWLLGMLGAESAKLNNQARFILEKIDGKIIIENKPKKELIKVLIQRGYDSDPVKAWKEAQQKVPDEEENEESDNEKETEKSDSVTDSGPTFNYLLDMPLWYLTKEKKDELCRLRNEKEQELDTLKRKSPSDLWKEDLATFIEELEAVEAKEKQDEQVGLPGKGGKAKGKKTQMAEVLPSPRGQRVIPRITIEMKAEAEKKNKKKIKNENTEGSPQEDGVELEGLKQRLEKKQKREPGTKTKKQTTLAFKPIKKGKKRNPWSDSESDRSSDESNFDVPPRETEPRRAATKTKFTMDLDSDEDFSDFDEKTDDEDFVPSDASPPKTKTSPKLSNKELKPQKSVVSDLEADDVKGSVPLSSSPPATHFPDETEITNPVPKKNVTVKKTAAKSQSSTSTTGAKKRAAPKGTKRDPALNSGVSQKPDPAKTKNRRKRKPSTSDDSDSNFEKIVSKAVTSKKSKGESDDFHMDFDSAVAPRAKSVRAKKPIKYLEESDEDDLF

For the compound `Brc1ccc(Cc2nc(NCCN3CCNCC3)c3c4c(sc3n2)CCCC4)cc1`, the inhibition at 10 µM turned out to be 74.7% in the data set on FaDu; 19.4% in the data set on MCF7; 34.2% in the data set on A549; 1.23% with MDA-MB-231; 1.24% in data set [1]; 54% in the data set with T47D. Besides, the Activity entry in the data set with HEK293 is reported as “Non-toxic”. In addition, the inhibition entry in [2] was “Active; Compound Showed Potent Inhibition Activity Than Camptothecin”; in [3] it was “Active; Compound Showed Significant Inhibition Than Compound 7A”; in data set [4] it was “Active; Compound Showed Weak Effect”; in [5] it was 28.5%; in [6], 57.9%.
